What was measured:
Lewis lung cancer = assay: Tumor inhibition in murine model with Lewis lung cancer; assay type: in vivo, C57BL/6J mice; conditions: for Tumor inhibiting rate / Tumor weight: 19th day after inoculation
[1] = mice bearing Lewis lung cancer, i.p. x 10 qd
[2] = in vivo; cited from earlier work
liver cancer of mouse = conditions: cited from earlier work
[3] = compared with 5FU; cited from earlier work
tumor cell strain K256 = conditions: among dihydrobibenzyls and phenanthrenes in Dendrobium chrysotoxum; cited from earlier work
[4] = test system: human leukemia HL-60 cells; conditions: cited from earlier work

In the case of `O=P1(N(CCCl)CCCl)NCCCO1` (stereo not shown) [CTX, Cyclophosphamide, reference compound], the Tumor inhibiting rate (Lewis lung cancer; 30 mg/kg i.p. x 10 qd) is reported as 63.2%, the Tumor weight (Lewis lung cancer; 30 mg/kg i.p. x 10 qd) is reported as 0.96 ± 0.13 and the “General condition of the mice (signs of toxicity)” value [1] is reported as “signs of athrepsia, listlessness, and pilo-erection”.

In the case of `COc1ccc(/C=C\c2cc(OC)c(OC)c(OC)c2)cc1O` [Combretastatin A-4], the LD50 [2] is listed as 500 mg/kg.

For `N.N.[Cl][Pt][Cl]` [DDP, Cisplatin, reference compound], the Tumor inhibiting rate (Lewis lung cancer; 1 mg/kg i.p. x 10 qd) was 51.4% and the Tumor weight (Lewis lung cancer; 1 mg/kg i.p. x 10 qd) was 1.26 ± 0.15.

In the case of `COc1ccc(CCc2cc(OC)c(OC)c(OC)c2)cc1O` [Erianin], the tumor inhibitory rate (liver cancer of mouse) is given as 50.82%, the Tumor inhibiting rate (Lewis lung cancer; 50 mg/kg i.p. x 10 qd) is given as 38.8% and the Tumor weight (Lewis lung cancer; 50 mg/kg i.p. x 10 qd) is given as 1.59 ± 0.26. It also gave a Tumor inhibiting rate (Lewis lung cancer; 100 mg/kg i.p. x 10 qd) of 46.0%, a Tumor weight (Lewis lung cancer; 100 mg/kg i.p. x 10 qd) of 1.40 ± 0.31 and a Tumor inhibiting rate (Lewis lung cancer; 200 mg/kg i.p. x 10 qd) of 55.6%. For the same compound, the Tumor weight (Lewis lung cancer; 200 mg/kg i.p. x 10 qd) was 1.15 ± 0.14, the “Result assessment of tumor inhibiting effect” value (Lewis lung cancer; mice bearing Lewis lung cancer, in words) was “quite effective” and the toxic side effect [3] was “far lower than 5FU”. For the same compound, the “inhibitory effect on the growth of tumor cell strain K256” value (tumor cell strain K256) was “most active”, the “inhibition of growth of HL-60 cells” value [4] was “significantly inhibited” and the Death [1] was “no death occurred”. For the same compound, the “General condition of the mice (signs of toxicity)” value [1] was “normal appetite, bright hair and free movements”.
